We go through 33 compounds from PMC6152747, “Lipophilicity Studies on Thiosemicarbazide Derivatives” (Molecules : A Journal of Synthetic Chemistry and Natural …, 2017).

In general, IC50 refers to the concentration needed to halve the response being measured.

One series can be described thus: physchem. As to conditions: for −S: slope of logk vs. methanol concentration (Eq. 1); for chromatographic logP: read-out: logPHPLC; for – S of standards: slope of Eq. 1. The format is physicochemical. The procedure: Methanolic solutions (5 μL, 0.1%) of selected samples were applied to the chromatographic column (RP-18 Waters Symmetry, 15 cm length, 4.6 mm i.d., 5 μm particle size) by use of an autosampler Hitachi L-2200 (LaChrom Elite, Hitachi-Merck, Darmstadt, Germany). The mobile phase, consisting of a methanol and water mixture, was degassed by use of the built-in membrane degasser. […] Chromatograms were detected at 254 nm and the temperature of the column was 25 °C. All experiments were repeated in triplicate and the final results were taken to be the arithmetic means. Dead time was measured by use of uracil (Calbiochem. Merck, Darmstadt, Germany). All experiments were performed at ambient temperature.

Series [1] addresses S. aureus topoisomerase IV (topo IV). To be noted: previously tested, cited from earlier work; for IC50: read-out: Inhibitory Potency IC50 Topo IV.
The next series deals with S. aureus DNA gyrase. To be noted: previously tested, read-out: Inhibitory Potency IC50 DNA Gyrase; cited from earlier work.
Details of series [2]: method as in earlier work. As to conditions: octanol–water; OECD guidelines; cited from earlier work.
[3] abbreviates: Table 1, retention factor extrapolated to pure water (Eq. 1), methanol 45–75%, RP-18, 25 °C.
Where [4] appears, read: Table 2, retention factor extrapolated to pure water.
[5] abbreviates: from logkw by calibration curve with seven OECD standards (Eq. 3).
Where [6] appears, read: same chromatographic conditions as compounds 1–17.

For the compound `COc1cccc(C(=O)NNC(=S)NC(=O)c2cccc(Cl)c2)c1` [Compound 8], the logkw in “physchem” (setting [3]) and in “physchem” (setting [4]) was 3.7422 throughout. Also, the “−S” value in the series “physchem” (Table 1) amounted to 5.0742. The chromatographic logP in “physchem” (setting [5]) was determined as 3.84.
As for `O=C(NNC(=S)Nc1ccc(Cl)c(Cl)c1)c1ccccc1O` [Compound 14], the logkw in the series “physchem” (setting [3]) and in “physchem” (setting [4]) was 4.1453 each time. In “physchem” (Table 1), the “−S” value amounted to 5.6538. For the same compound, the chromatographic logP in the series “physchem” (setting [5]) amounted to 4.27.
In the case of `Cc1ccc(NC(=S)NNC(=O)c2ccccc2O)cc1Cl` [Compound 15], the logkw in “physchem” (setting [3]) and in the series “physchem” (setting [4]) was 3.9451 each time. In addition, the “−S” value in “physchem” (Table 1) is recorded as 5.5432. Further, in “physchem” (setting [5]), the chromatographic logP worked out at 4.06.
Turning to `O=C(NNC(=S)NC1CCCCC1)c1cccc(O)c1` [Compound 17], the logkw in the series “physchem” (setting [3]) and in “physchem” (setting [4]) was 2.7583 throughout. Further, the “−S” value in “physchem” (Table 1) is listed as 4.3297. Also, the chromatographic logP in the series “physchem” (setting [5]) is 2.79.
As for `O=C(NNC(=S)Nc1ccc(F)cc1F)c1cc2ccccc2[nH]1` [Compound 24], in series [1], the 50% inhibitory concentration (IC50) was 295 µM and the “Inhibitory Potency IC50 Topo IV” value is reported as “weak inhibitory potency”.
On to `Oc1ccc2ccccc2n1` [2-hydroxyquinoline, reference compound], for which the logkw of standards in “physchem” (Table S2, parameters of Eq. 1) is reported as 1.4879; in the series “physchem” (setting [6]), 1.3682. Also, the “– S of standards” value in the series “physchem” (Table S2) worked out at 2.9059.
With `O=C(NNC(=S)Nc1ccccc1)c1ccccc1O` [Compound 12], the logkw in “physchem” (setting [3]) and in “physchem” (setting [4]) was 2.4813 each time. The “−S” value in “physchem” (Table 1) is recorded as 4.1962. Moreover, the chromatographic logP in “physchem” (setting [5]) came out at 2.49.
For the compound `O=C(NNC(=S)NC1CCCCC1)c1ccccc1O` [Compound 13], the logkw in the series “physchem” (setting [3]) and in the series “physchem” (setting [4]) was 3.2386 each time. The “−S” value in the series “physchem” (Table 1) was found to be 4.7076. The chromatographic logP in “physchem” (setting [5]) is 3.3.
As for `COc1cccc(C(=O)NNC(=S)NC(=O)c2ccccc2C)c1` [Compound 5], the logkw in the series “physchem” (setting [3]) and in the series “physchem” (setting [4]) was 3.4487 throughout. Besides, the “−S” value in “physchem” (Table 1) amounted to 4.8562. Moreover, the chromatographic logP in “physchem” (setting [5]) came out at 3.53.
Consider `Cc1nc[nH]c1C(=O)NNC(=S)NC(=O)c1ccccc1` [Compound 20], for which, in series [1], the IC50 was 90 µM and the “Inhibitory Potency IC50 Topo IV” value was “anti-topo IV activity”.
Consider `O=C(NNC(=S)Nc1ccc(Cl)cc1)c1ccccc1O` [Compound 11], for which the logkw in the series “physchem” (setting [3]) and in the series “physchem” (setting [4]) was 3.3324 in each case. The “−S” value in “physchem” (Table 1) was determined as 4.8778. The compound also returned a logPHPLC in “physchem” (setting [5]) of 3.4026.
Turning to `O=C(CS(=O)(=O)c1ccccc1)NNC(=S)NC(=O)c1ccccc1Cl` [Compound 10], the logkw in the series “physchem” (setting [3]) and in “physchem” (setting [4]) was 3.2498 in each case. In addition, in the series “physchem” (Table 1), the “−S” value was 5.7291. For the same compound, the chromatographic logP in the series “physchem” (setting [5]) is 3.31.
`COc1cccc(C(=O)NNC(=S)NC(=O)c2cccc(C)c2)c1` [Compound 6]: the logkw in the series “physchem” (setting [3]) and in “physchem” (setting [4]) was 3.7864 each time. Moreover, in “physchem” (Table 1), the “−S” value turned out to be 5.1137. Besides, in “physchem” (setting [5]), the chromatographic logP worked out at 3.89.
`Brc1ccccc1` [bromobenzene, reference compound] had a logkw of standards in “physchem” (Table S2, parameters of Eq. 1) of 3.0842. The “– S of standards” value in “physchem” (Table S2) came out at 3.6630.
Turning to `Cc1ccccc1` [toluene, reference compound], the “– S of standards” value in the series “physchem” (Table S2) is 3.4400.
Take `COc1cccc(C(=O)NNC(=S)NC(=O)c2ccccc2)c1` [Compound 4]: the logkw in “physchem” (setting [3]) and in “physchem” (setting [4]) was 3.3130 in each case. Also, the “−S” value in the series “physchem” (Table 1) came out at 4.8205. In addition, the chromatographic logP in the series “physchem” (setting [5]) worked out at 3.38.
Consider `O=C(NNC(=S)Nc1ccc(F)cc1)c1cc2ccccc2[nH]1` [Compound 23], for which the IC50 at S. aureus DNA gyrase was 128 µM. In addition, in series [1], the IC50 is 267 µM and the “Inhibitory Potency IC50 Topo IV” value is “weak inhibitory potency”.
For `c1ccc2ccccc2c1` [naphtalene, reference compound], the “known logPo/w of standards” value in series [2] is 3.6. For the same compound, the logkw of standards was 3.5779 in “physchem” (Table S2, parameters of Eq. 1) and 3.5502 in “physchem” (setting [6]). For the same compound, the “– S of standards” value in the series “physchem” (Table S2) is 4.2289.
Regarding `O=C(NNC(=S)Nc1ccc([N+](=O)[O-])cc1)c1cc2ccccc2[nH]1` [Compound 21], the half-inhibitory concentration (IC50) in series [1] was 14 µM.
Turning to `O=C(NC(=S)NNC(=O)c1ccc[nH]1)c1ccccc1` [Compound 2], the half-maximal inhibitory concentration (IC50) is 93.3 µM at S. aureus DNA gyrase and 41 µM in series [1]. Also, the logkw in “physchem” (setting [3]) and in “physchem” (setting [4]) was 2.5105 each time. The “−S” value in “physchem” (Table 1) was determined as 4.1416. The chromatographic logP in “physchem” (setting [5]) turned out to be 2.53. Besides, the “Inhibitory Potency IC50 Topo IV” value in series [1] was “anti-topo IV activity”.
As to `Cc1occc1C(=O)NNC(=S)NC(=O)c1ccccc1` [Compound 1], the half-inhibitory concentration (IC50) on S. aureus DNA gyrase is 14.6 µM. Also, the logkw in the series “physchem” (setting [3]) and in “physchem” (setting [4]) was 2.9992 in each case. Besides, in “physchem” (Table 1), the “−S” value amounted to 4.3720. The chromatographic logP in the series “physchem” (setting [5]) was 3.05.
Turning to `O=C(NC(=S)NNC(=O)c1cc2ccccc2[nH]1)c1ccccc1` [Compound 18], in series [1], the IC50 was 14 µM and the “Inhibitory Potency IC50 Topo IV” value was “anti-topo IV activity”.
For `O=C(NC(=S)NNC(=O)c1cccs1)c1ccccc1` [Compound 19], the IC50 at S. aureus DNA gyrase is 83.6 µM.
For `O=C(NNC(=S)Nc1ccc([N+](=O)[O-])cc1)c1ccc[nH]1` [Compound 27], the IC50 at S. aureus DNA gyrase is 64.2 µM.
Regarding `CCc1ccccc1` [ethylbenzene, reference compound], the logkw of standards was determined as 3.4018 in “physchem” (Table S2, parameters of Eq. 1) and 3.3754 in the series “physchem” (setting [6]). Also, in the series “physchem” (Table S2), the “– S of standards” value is reported as 3.8740.
On to `COc1cccc(C(=O)NNC(=S)NC(=O)c2ccccc2Cl)c1` [Compound 7], for which the logkw in “physchem” (setting [3]) and in “physchem” (setting [4]) was 3.8283 in each case. For the same compound, in the series “physchem” (Table 1), the “−S” value is 5.6579. Moreover, the chromatographic logP in the series “physchem” (setting [5]) was found to be 3.93.
`Nc1ccccc1` [aniline, reference compound] yielded a logkw of standards in the series “physchem” (Table S2, parameters of Eq. 1) of 1.1365. Besides, the “– S of standards” value in the series “physchem” (Table S2) was 2.4091.
In the case of `COc1cccc(C(=O)NNC(=S)NC(=O)c2ccc(Cl)cc2)c1` [Compound 9], the logkw in the series “physchem” (setting [3]) and in the series “physchem” (setting [4]) was 3.9422 each time. The “−S” value in the series “physchem” (Table 1) came to 5.3417. In addition, in “physchem” (setting [5]), the chromatographic logP is 4.05.
In the case of `O=C(NNC(=S)NC(=O)c1ccccc1Cl)c1ccccc1O` [Compound 3], the logkw in “physchem” (setting [3]) is given as 4.2230. Besides, the “−S” value in “physchem” (Table 1) stood at 6.1166. Further, in the series “physchem” (setting [5]), the chromatographic logP worked out at 4.36.
For `Cc1nnsc1C(=O)NNC(=S)Nc1ccc(Br)cc1` [Compound 28], the IC50 in series [1] is 403 µM.
As to `c1ccccc1` [benzene, reference compound], the logkw of standards in “physchem” (Table S2, parameters of Eq. 1) amounted to 2.2458. The “– S of standards” value in the series “physchem” (Table S2) worked out at 2.8691.
As for `O=C(NNC(=S)Nc1ccccc1)c1cccc(O)c1` [Compound 16], the logkw in the series “physchem” (setting [3]) and in the series “physchem” (setting [4]) was 2.0687 each time. The “−S” value in the series “physchem” (Table 1) amounted to 4.1968. Besides, the chromatographic logP in the series “physchem” (setting [5]) was 2.05.
For `O=C(NNC(=S)Nc1ccccc1F)c1cc2ccccc2[nH]1` [Compound 22], in series [1], the IC50 was 63.5 µM and the “Inhibitory Potency IC50 Topo IV” value is “weak inhibitory potency”.
